System: 485176-168-R4-J1-PDC spheroids with HUVEC/MSC, viability
Assay: Anticancer human tumor 485176-168-R4-J1-PDC patient-derived pancreatic adenocarcinoma cell line growth inhibition [GQUAD]
Conditions: for IC50: curve of first compound; for viability, T/C: stronger effect = lower value
In short: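 Tumor cells were grown as complex spheroids with HUVEC endothelial cells and mesenchymal stem cells as stroma. G-quadruplex stabilizers were combined with targeted agents over half-log dilutions from near the clinical Cmax, or from 10 microM.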

[1] = second compound 0.0316 µM, first compound 0.0316 µM
[2] = second compound 0.0316 µM, first compound 0.1 µM
[3] = second compound 0.0316 µM, first compound 0.316 µM
[4] = second compound 0.0316 µM, first compound 1 µM
[5] = second compound 0.0316 µM, first compound 3.16 µM
[6] = second compound 0.0316 µM, first compound 10 µM
[7] = second compound 0.1 µM, first compound 0.0316 µM
[8] = second compound 0.1 µM, first compound 0.1 µM
[9] = second compound 0.1 µM, first compound 0.316 µM
[10] = second compound 0.1 µM, first compound 1 µM
[11] = second compound 0.1 µM, first compound 3.16 µM
[12] = second compound 0.1 µM, first compound 10 µM
[13] = second compound 0.316 µM, first compound 0.0316 µM
[14] = second compound 0.316 µM, first compound 0.1 µM
[15] = second compound 0.316 µM, first compound 0.316 µM
[16] = second compound 0.316 µM, first compound 1 µM
[17] = second compound 0.316 µM, first compound 3.16 µM
[18] = second compound 0.316 µM, first compound 10 µM
[19] = second compound 1 µM, first compound 0.0316 µM
[20] = second compound 1 µM, first compound 0.1 µM
[21] = second compound 1 µM, first compound 0.316 µM
[22] = second compound 1 µM, first compound 1 µM
[23] = second compound 1 µM, first compound 3.16 µM
[24] = second compound 1 µM, first compound 10 µM
[25] = second compound 3.16 µM, first compound 0.0316 µM
[26] = second compound 3.16 µM, first compound 0.1 µM
[27] = second compound 3.16 µM, first compound 0.316 µM
[28] = second compound 3.16 µM, first compound 1 µM
[29] = second compound 3.16 µM, first compound 3.16 µM
[30] = second compound 3.16 µM, first compound 10 µM
[31] = second compound 10 µM, first compound 0.0316 µM
[32] = second compound 10 µM, first compound 0.1 µM
[33] = second compound 10 µM, first compound 0.316 µM
[34] = second compound 10 µM, first compound 1 µM
[35] = second compound 10 µM, first compound 3.16 µM
[36] = second compound 10 µM, first compound 10 µM
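Note: spheroids exposed to compounds for seven days before readout.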
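Throughout, for viability, T/C: percent viability relative to DMSO vehicle control wells as 100%.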

## CC1COCCN1c1cc(-c2ccnn2C)c2ccnc(-c3ccn[nH]3)c2n1 (stereo not drawn) + Cc1[nH]c2ccc(F)cc2c1-c1nc2c3cccnc3c3ncccc3c2[nH]1
Second compound 0.0316 µM
  IC50: 62 nM
Second compound 0.1 µM
  IC50: 85.4 nM
Second compound 0.316 µM
  IC50: 77.1 nM
Second compound 1 µM
  IC50: 57.2 nM
Second compound 3.16 µM
  IC50: 64.2 nM
Second compound 10 µM
  IC50: 69.8 nM
[1]
  viability, T/C: 71.8%
[2]
  viability, T/C: 34.2%
[3]
  viability, T/C: 19.2%
[4]
  viability, T/C: 10.6%
[5]
  viability, T/C: 10.7%
[6]
  viability, T/C: 11.7%
[7]
  viability, T/C: 60.5%
[8]
  viability, T/C: 48.3%
[9]
  viability, T/C: 16.8%
[10]
  viability, T/C: 10.9%
[11]
  viability, T/C: 11.1%
[12]
  viability, T/C: 13.2%
[13]
  viability, T/C: 67%
[14]
  viability, T/C: 45%
[15]
  viability, T/C: 18.7%
[16]
  viability, T/C: 10.4%
[17]
  viability, T/C: 12.3%
[18]
  viability, T/C: 11.3%
[19]
  viability, T/C: 61.1%
[20]
  viability, T/C: 39.5%
[21]
  viability, T/C: 19.1%
[22]
  viability, T/C: 10.3%
[23]
  viability, T/C: 10.6%
[24]
  viability, T/C: 9.82%
[25]
  viability, T/C: 64.9%
[26]
  viability, T/C: 40.6%
[27]
  viability, T/C: 15.8%
[28]
  viability, T/C: 9.36%
[29]
  viability, T/C: 11.8%
[30]
  viability, T/C: 12%
[31]
  viability, T/C: 70.3%
[32]
  viability, T/C: 40.7%
[33]
  viability, T/C: 18.2%
[34]
  viability, T/C: 10.9%
[35]
  viability, T/C: 11.2%
[36]
  viability, T/C: 11.4%

## CC1COCCN1c1cc(C2(O)CC3CCC(C2)O3)c2cnn(-c3ccn[nH]3)c2n1 (stereo not drawn) + Cc1[nH]c2ccc(F)cc2c1-c1nc2c3cccnc3c3ncccc3c2[nH]1
Second compound 0.0316 µM
  IC50: 71.9 nM
Second compound 0.1 µM
  IC50: 67.9 nM
Second compound 0.316 µM
  IC50: 118 nM
Second compound 1 µM
  IC50: 67.5 nM
Second compound 3.16 µM
  IC50: 46.6 nM
Second compound 10 µM
  IC50: 59.9 nM
[1]
  viability, T/C: 67.4%
[2]
  viability, T/C: 43%
[3]
  viability, T/C: 17.3%
[4]
  viability, T/C: 10.1%
[5]
  viability, T/C: 11.5%
[6]
  viability, T/C: 7.63%
[7]
  viability, T/C: 66.5%
[8]
  viability, T/C: 41.6%
[9]
  viability, T/C: 14.1%
[10]
  viability, T/C: 8.96%
[11]
  viability, T/C: 12%
[12]
  viability, T/C: 8.29%
[13]
  viability, T/C: 56.8%
[14]
  viability, T/C: 55.5%
[15]
  viability, T/C: 16.6%
[16]
  viability, T/C: 8.98%
[17]
  viability, T/C: 11.9%
[18]
  viability, T/C: 8.2%
[19]
  viability, T/C: 61.8%
[20]
  viability, T/C: 44%
[21]
  viability, T/C: 19.3%
[22]
  viability, T/C: 12.1%
[23]
  viability, T/C: 10.7%
[24]
  viability, T/C: 8.42%
[25]
  viability, T/C: 57.6%
[26]
  viability, T/C: 35%
[27]
  viability, T/C: 17.2%
[28]
  viability, T/C: 9.84%
[29]
  viability, T/C: 11.1%
[30]
  viability, T/C: 8.07%
[31]
  viability, T/C: 64.1%
[32]
  viability, T/C: 38.7%
[33]
  viability, T/C: 13.5%
[34]
  viability, T/C: 11.5%
[35]
  viability, T/C: 10.8%
[36]
  viability, T/C: 8.33%

## CC1COCCN1c1cc(C2(S(C)(=N)=O)CC2)nc(-c2ccnc3[nH]ccc23)n1 (stereo not drawn) + Cc1[nH]c2ccc(F)cc2c1-c1nc2c3cccnc3c3ncccc3c2[nH]1
Second compound 0.0316 µM
  IC50: 1350 nM
Second compound 0.1 µM
  IC50: 1840 nM
Second compound 0.316 µM
  IC50: 1830 nM
Second compound 1 µM
  IC50: 1910 nM
Second compound 3.16 µM
  IC50: 1260 nM
Second compound 10 µM
  IC50: 1240 nM
[1]
  viability, T/C: 110%
[2]
  viability, T/C: 90.4%
[3]
  viability, T/C: 97.8%
[4]
  viability, T/C: 53.6%
[5]
  viability, T/C: 32%
[6]
  viability, T/C: 15.5%
[7]
  viability, T/C: 89.4%
[8]
  viability, T/C: 103%
[9]
  viability, T/C: 85.5%
[10]
  viability, T/C: 69.9%
[11]
  viability, T/C: 32.7%
[12]
  viability, T/C: 16.4%
[13]
  viability, T/C: 88.3%
[14]
  viability, T/C: 103%
[15]
  viability, T/C: 84.8%
[16]
  viability, T/C: 66.9%
[17]
  viability, T/C: 35.2%
[18]
  viability, T/C: 14.1%
[19]
  viability, T/C: 92%
[20]
  viability, T/C: 97.3%
[21]
  viability, T/C: 96.5%
[22]
  viability, T/C: 66.7%
[23]
  viability, T/C: 36.4%
[24]
  viability, T/C: 13.7%
[25]
  viability, T/C: 83.5%
[26]
  viability, T/C: 89.9%
[27]
  viability, T/C: 75.5%
[28]
  viability, T/C: 57.6%
[29]
  viability, T/C: 24.7%
[30]
  viability, T/C: 14.7%
[31]
  viability, T/C: 84.7%
[32]
  viability, T/C: 104%
[33]
  viability, T/C: 80.9%
[34]
  viability, T/C: 55.6%
[35]
  viability, T/C: 26.4%
[36]
  viability, T/C: 13.8%

## COc1ccc([C@@H](O)c2cc(-c3ncnc4cc(N5CCOCC5)ccc34)c(F)cc2Cl)nn1 + Cc1[nH]c2ccc(F)cc2c1-c1nc2c3cccnc3c3ncccc3c2[nH]1
Second compound 0.0316 µM
  IC50: 3020 nM
Second compound 0.1 µM
  IC50: 2690 nM
Second compound 0.316 µM
  IC50: 3660 nM
Second compound 1 µM
  IC50: 2520 nM
Second compound 3.16 µM
  IC50: 1850 nM
Second compound 10 µM
  IC50: 1760 nM
[1]
  viability, T/C: 83.4%
[2]
  viability, T/C: 98.8%
[3]
  viability, T/C: 91.8%
[4]
  viability, T/C: 69.8%
[5]
  viability, T/C: 51.6%
[6]
  viability, T/C: 31.4%
[7]
  viability, T/C: 91.9%
[8]
  viability, T/C: 90.2%
[9]
  viability, T/C: 94.7%
[10]
  viability, T/C: 68.6%
[11]
  viability, T/C: 48.7%
[12]
  viability, T/C: 27.7%
[13]
  viability, T/C: 91.2%
[14]
  viability, T/C: 88.9%
[15]
  viability, T/C: 82%
[16]
  viability, T/C: 86.6%
[17]
  viability, T/C: 53.2%
[18]
  viability, T/C: 28.1%
[19]
  viability, T/C: 81%
[20]
  viability, T/C: 79%
[21]
  viability, T/C: 94.2%
[22]
  viability, T/C: 66.5%
[23]
  viability, T/C: 46.5%
[24]
  viability, T/C: 22.4%
[25]
  viability, T/C: 98.5%
[26]
  viability, T/C: 87.9%
[27]
  viability, T/C: 74.4%
[28]
  viability, T/C: 63.2%
[29]
  viability, T/C: 39.1%
[30]
  viability, T/C: 21.3%
[31]
  viability, T/C: 97.4%
[32]
  viability, T/C: 78.3%
[33]
  viability, T/C: 76%
[34]
  viability, T/C: 56%
[35]
  viability, T/C: 45.7%
[36]
  viability, T/C: 21.1%

Reference: PubChem BioAssay AID2060509 (Molecular Pharmacology Branch, DTP, NCI, 2025)
